Test results as given in patent US10882817B2, “Acetylsalicylic acid derivative crystal, its preparation method and use” (Zhejiang Yuejia Pharmaceuticals Co., Ltd, priority 2015, dated 2021).

Test: Stability test of 2-(diethylamino)ethyl 2-acetoxybenzoate hydrochloride crystal
Type: physicochemical
Conditions: for pH value / Other related substances / Related substances 2-(diethylamino)ethyl-salicylate hydrochloride / Related substances Acetylsalicylic acid / Related substances Salicylic acid / Content: stored at 25° C.±2° C.; for pH value: 1.0 g sample in 50 mL water, filtrate; for Other related substances / Related substances 2-(diethylamino)ethyl-salicylate hydrochloride / Related substances Acetylsalicylic acid / Related substances Salicylic acid: HPLC; for Content: HPLC external standard method
Procedure: The 2-(diethylamino)ethyl 2-acetoxybenzoate hydrochloride crystals obtained in Example 1 is taken and placed under the conditions of 25° C.±2° C., and sampling is carried out at month 0, month 3, month 6, month 9, and month 12, respectively, followed by the detection of the pH value, related substances and their contents. In the process, the pH value is obtained by taking about 1.0 g of a sample, adding 50 mL of water, shaking for 10 minutes, filtration, taking 10 mL of a subsequent filtrate and detection with a pH meter; and the related substances and the contents are both detected by high performance liquid chromatography (an external standard method).

SMILES: CCN(CC)CCOC(=O)c1ccccc1OC(C)=O.Cl [2-(diethylamino)ethyl 2-acetoxybenzoate hydrochloride]
- stability (after having been stored at 25° C.±2° C. for 12 months): very good stability
- pH value (Month 0): 4.82
- Other related substances (Month 0): Not detected
- Related substances 2-(diethylamino)ethyl-salicylate hydrochloride (Month 0): 0.58%
- Related substances Acetylsalicylic acid (Month 0): 0.0059%
- Related substances Salicylic acid (Month 0): Not detected
- Content (Month 0): 99.58%
- pH value (Month 3): 4.83
- Other related substances (Month 3): Not detected
- Related substances 2-(diethylamino)ethyl-salicylate hydrochloride (Month 3): 0.65%
- Related substances Acetylsalicylic acid (Month 3): 0.0063%
- Related substances Salicylic acid (Month 3): 0.00254%
- Content (Month 3): 99.51%
- pH value (Month 6): 4.81
- Other related substances (Month 6): Not detected
- Related substances 2-(diethylamino)ethyl-salicylate hydrochloride (Month 6): 0.58%
- Related substances Acetylsalicylic acid (Month 6): 0.0070%
- Related substances Salicylic acid (Month 6): 0.00101%
- Content (Month 6): 99.59%
- pH value (Month 9): 4.79
- Other related substances (Month 9): Not detected
- Related substances 2-(diethylamino)ethyl-salicylate hydrochloride (Month 9): 0.60%
- Related substances Acetylsalicylic acid (Month 9): 0.0048%
- Related substances Salicylic acid (Month 9): 0.00083%
- Content (Month 9): 99.57%
- pH value (Month 12): 4.83
- Other related substances (Month 12): Not detected
- Related substances 2-(diethylamino)ethyl-salicylate hydrochloride (Month 12): 0.62%
- Related substances Acetylsalicylic acid (Month 12): 0.0053%
- Related substances Salicylic acid (Month 12): 0.00103%
- Content (Month 12): 99.58%
